US20040091479A1, “T-cell epitope of the papillomavirus l1 and e7 protein and use thereof in diagnostics and therapy” (priority 2000, published 2004)
Where a SMILES comes first, the peptide text is derived from it.

Columns and labels:
[1] = tested on: HPV18 CVLP-stimulated human T cells; test: Restimulating HPV18 CVLP-stimulated T cells with BLCL presenting Q38, Q39, Q46 or Q47 (example 13); type: cell-based; details: conclusion from FIG. 12 top right
Description: In analogy with example 6, human T cells (4×10^5) derived from a non-HLA-typed blood donor were stimulated with HPV18L1ΔCDIE71-53DI CVLPs and HPV18L1ΔCDIE71-60DI CVLPs and harvested.
The T cells were then restimulated, at 37° C. and in 100 μl of medium, with in each case 1 μg of peptide Q38, Q39, Q46 or Q47/ml and 10^5 antigen-presenting cells (donor-identical BLCL) in the presence of 10 IU of IL2/ml. Cells which were only incubated with buffer served as the negative control while cells which were incubated with the HPV18 L1 peptide pool or the E7 peptide pool served as positive controls.
(§1) 1 μl of monensin was added after an hour. The cells were then incubated at 37° C. for a further 5 hours. After that, the cells were fixed and permeabilized and stained with α-human CD8/APC, with α-human CD4/PerCP and with α-human IFNγ/FITC. The labeling of the cells was examined in a FACScan Calibur and the results of the measurements were analyzed using Cellquest software.

[2] = tested on: CVLP-stimulated human CD4-positive T cells; test: Restimulating HPV18 CVLP-stimulated T cells with BLCL presenting HPV18 peptide pools (example 6); type: cell-based; details: peptide common to two reactive HPV18 pools; CD4/IFNγ
Description: Human T cells (4×10^5) from a non-HLA-typed blood donor were stimulated for 1 week with HPV18 L1ΔCDIE71-53DI CVLPs and HPV18 L1ΔACDIE71-60DI CVLPS, 800 U of human GM-CSF/ml and 500 U of human IL4/ml and also, for a further 5 weeks, with HPV18 L1ΔCDIE71-53DI CVLPs and HPV18 L1ΔCDIE71-6ODI CVLPs at 37° C., with the weekly addition of 1 μg of the CVLPs mixLure (ratio of the two constructs 1:1)/ml and 10^5 antigen-presenting cells (irradiated PMBC), and harvested.
The 20 mer peptides Q1 to 52 were assembled into peptide pools A to H and 1 to 7, respectively, in accordance with the matrix
The T cells were then restimulated, at 37° C. and in 100 μl of medium, with the peptide pools and 10^5 antigen-presenting cells (donor-identical BLCL) in the presence of 10 IU of IL2/ml. The quantities of the peptide pools which were used in this connection were such that. 1 μg/ml was added in the case of each individual peptide.
Cells which were only incubated with buffer served as the negative control while cells incubated with the HPV18 L1 peptide pool and the HPV18 E7 peptide pool, respectively, served as positive controls.
as §1, with “analyzed” for “examined”

[3] = tested on: CVLP-stimulated CD8-positive T cells; test: Restimulating HPV16 CVLP-stimulated T cells with BLCL presenting HPV16 peptide pools (example 10); type: cell-based, human; details: peptide common to two reactive HPV16 pools
Description: (§2) In analogy with example 6, human T cells derived from a non-HLA-typed blood donor were stimulated with HPV16L1ΔC*E71-55 CVLPs and harvested.
(§3) The T cells were then restimulated, at 37° C. and in 100 μl of medium, with the peptide pools from example 7 and 10^5 antigen-presenting cells (donor-identical BLCL) in the presence of 10 IU of IL2/ml. Use was made, in this connection, of quantities of the peptide pools which was such that 1 μg/ml was added in the case of each individual peptide. Cells which were only incubated with buffer served as the negative control while cells which were incubated with HPV16 L1 peptide pool served as positive controls.
as §1

[4] = tested on: HPV18 L1 peptide pool-stimulated CD8-positive T cells; test: Restimulating HPV18 L1 peptide-stimulated T cells with Q9-presenting BLCL (example 8); type: cell-based, human
Description: In analogy with example 3, human T cells (4×10^5) derived from an HLA A24-positive donor were stimulated for 3 weeks with the HPV18 L1 peptide pool, at 37° C., with the weekly addition of 1 μg of each individual peptide/ml and 10^5 antigen-presenting cells (irradiated PMBC), and harvested.
The cells were then restimulated, at 37° C. in 100 μl of medium, with 10 μg of the HPV18 L1 peptide Q9/ml and 10^5 antigen-presenting cells (donor-identical BLCL) in the presence of 10 IU of IL2/ml. Cells which were only incubated with buffer served as the negative control.
as §1, with “of monensin (300 μM) was added” for “of monensin was added”, “cells were then fixed and” for “cells were fixed and”

[5] = tested on: peptide-stimulated murine CD8-positive T cells; test: Restimulating HPV18 peptide-stimulated murine T cells with peptide-presenting LKK cells (IFNγ FACScan); type: cell-based, C3H mice; details: for proportion of CD8-positive T cells reactive on the basis of IFNγ expression: 1 μg peptide/ml, LKK cells, T cells of HPV18 CVLP-inoculated C3H mice, FIG. 3, 4; for T cell epitope assignment: conclusion from FIG. 3, 4
Description: Murine T cells (4×10^5) derived from C3H mice inoculated with HPV18 L1ΔCDIE71-53DI CVLPs and HPV18 L1ΔCDIE71-6ODI CVLPs were stimulated for 5 weeks with HPV18 L1 or E7 peptide pools at 37° C., with the weekly addition of 1 μg of each individual peptide/ml and 10^5 antigen-presenting cells (irradiated splenocytes), and harvested. The cells were then restimulated, at 37° C. and in 100 μl of medium, with 1 μg of the peptides given on the X axis in FIG. 3/ml and 10^5 antigen-presenting cells (LKK) in the presence of 10 IU of IL2/ml. Cells which were only incubated with buffer served as the negative control.
1 μl of monensin (300 μm) was added after an hour. The cells were incubated at 37° C. for a further 5 hours. The cells were then fixed and permeabilized and stained with α-mouse CD8/PE, with α-mouse CD4/cychrome and with α-mouse interferony/FITC. The labeling of the cells was analyzed in a FACScan Calibur and the results of the measurement were analyzed using Cellquest software.

RMA cells = test: 51Cr release: lysing HPV18 peptide-loaded RMA cells (example 17); type: cell-based, murine; details: for T cell epitope assignment: conclusion from FIG. 16 upper part; for specific lysis of target cells (51Cr release): peptide-loaded RMA cells, effector:target 20, FIG. 16 upper part
Description: In analogy with example 4, RMA or LKK cells were radioactively labeled with ^51Cr and incubated with the peptides (Q43 and Q44 in the upper part of FIG. 16 and Q49 in the lower part of FIG. 16) which are plotted on the X axis. Cells without peptide served as negative controls. T cells which had previously been stimulated with the peptide pool were then added.
The lysis of the RMA cells or LKK cells by the T cells was measured by the release of the ^51Cr and calculated as described in example 4.

[6] = tested on: CVLP-stimulated T cells (CD4-positive); test: Restimulating HPV16 CVLP-stimulated T cells with BLCL presenting pools or P39 (example 9; IFNγ and IL4); type: cell-based, human; details: for T cell epitope assignment (TH2): peptide common to two reactive HPV16 pools, CD4/IL4
Description: as §2, §3, §1

human T cells = test: Summary of examples 3 to 18: epitopes recognized by human T cells; type: cell-based; details: Table 3, HPV16 peptides, species human; TC cytotoxic, TH T helper
[7] = tested on: CVLP-stimulated CD8-positive T cells; test: Restimulating HPV16 CVLP-stimulated T cells with BLCL presenting HPV16 peptide pools (example 14); type: cell-based, human; details: peptide common to two reactive HPV16 pools; CD8/IFNγ
Description: as §2
The T cells were then restimulated, at 37° C. and in 100 μl of medium, with the peptide pools from example 7 and 10^5 antigen-presenting cells (donor-identical BLCL) in the presence of 10 IU of IL2/ml. Use was made, in this connection, of quantities of the peptide pools which were such that 1 μg/ml was added in the case of each individual peptide. Cells which were only incubated with buffer served as the negative control, while cells which were incubated with the HPV16 L1 or E7 peptide pool served as positive controls.
as §1

CC[C@H](C)[C@H](NC(=O)[C@H](CCC(=O)O)NC(=O)[C@H](CC(=O)O)NC(=O)[C@H](CC(N)=O)NC(=O)[C@H](CCC(=O)O)NC(=O)[C@H](CCC(=O)O)NC(=O)[C@H](CCC(=O)O)NC(=O)[C@@H](N)CO)C(=O)N[C@@H](CC(=O)O)C(=O)NCC(=O)N[C@H](C(=O)N[C@@H](CC(N)=O)C(=O)N[C@@H](Cc1c[nH]cn1)C(=O)N[C@@H](CCC(N)=O)C(=O)N[C@@H](Cc1c[nH]cn1)C(=O)N[C@@H](CC(C)C)C(=O)N1CCC[C@H]1C(=O)N[C@@H](C)C(=O)N[C@@H](CCCNC(=N)N)C(=O)N[C@@H](CCCNC(=N)N)C(=O)O)C(C)C [Q47] (H-SEEENDEIDGVNHQHLPARR-OH; N-terminus and C-terminus assumed)
T cell epitope assignment (cytotoxic) [1]: contain cytotoxic T cell epitopes

GGNKQDIPKVSAYQYRVFRV [Q6, HPV18 L1 56-75]
T cell epitope assignment [2]: contains a T helper epitope

GLQYRVFRIHLPDPNKFGFP [P7]
T cell epitope assignment [3]: contain a cytotoxic T cell epitope

IYNPETQRL [HPV18 L1 90-98, contained in peptide Q9]
T cell epitope assignment ([4]; 9mer within Q9, deduced from Q9 result and HLA A24 prediction): HLA A24-restricted cytotoxic T cell epitope

MALWRPSDNTVYLPPPSVAR [Q1, HPV18 L1 1-20]
T cell epitope assignment [2]: contain T helper epitopes

MHGPKATLQDIVLHLEPQNE [Q44, HPV18 E7 1-20]
proportion of CD8-positive T cells reactive on the basis of IFNγ expression [5]: brought about a restimulation
T cell epitope assignment [5]: contain H2k-restricted cytotoxic T cell epitopes
T cell epitope assignment (RMA cells): H2b-restricted cytotoxic T cell epitopes
specific lysis of target cells (51Cr release) (RMA cells): able to efficiently lyse

PPPGGTLEDTYRFVTSQAIA [P38, HPV16 L1 408-427]
T cell epitope assignment (TH2) [6]: contains a TH2 epitope
Epitope type (human T cells): TH2

PYDKLKFWNVDLKEKFSLDL [Q41, HPV18 L1 441-460]
proportion of CD8-positive T cells reactive on the basis of IFNγ expression [5]: brought about a restimulation
T cell epitope assignment [5]: contain H2k-restricted cytotoxic T cell epitopes
T cell epitope assignment [2]: contain T helper epitopes

RFVTSQAIACQKHTPPAPKE [P39, HPV16 L1 419-438]
T cell epitope assignment (TH1) ([6]; CD4-positive and IFNγ-positive, pools G and 5 and P39 alone): contains a T helper epitope
proportion of CD4-positive and IFNγ-positive cells (TH1) ([6]; HPV16 pools or P39, donor-identical BLCL, FIG. 8 top): very high
T cell epitope assignment (TH2) [6]: contains a TH2 epitope
Epitope type (human T cells): TH1, TH2

SIYNPETQRLVWACAGVEIG [Q9, HPV18 L1 89-108]
proportion of CD8-positive T cells reactive on the basis of IFNγ expression ([4]; 10 μg Q9/ml, donor-identical BLCL, HLA A24-positive donor, FIG. 7): brought about a restimulation
T cell epitope assignment ([4]; conclusion from FIG. 7): contains an HLA A24-restricted cytotoxic T cell epitope

VGHPYFPIKKPNNNKILVPK [P5, HPV16 L1 45-64]
T cell epitope assignment [7]: contain a cytotoxic T cell epitope
T cell epitope assignment [3]: contain a cytotoxic T cell epitope

YLPPVPVSKVVSTDEYVART [P2, HPV16 L1 12-31]
T cell epitope assignment [3]: contain a cytotoxic T cell epitope

YPLGRKFLVQAGMHGPKATL [Q43, HPV18 L1 463-474 and E7 1-8]
proportion of CD8-positive T cells reactive on the basis of IFNγ expression [5]: brought about a restimulation
T cell epitope assignment [5]: contain H2k-restricted cytotoxic T cell epitopes
T cell epitope assignment (RMA cells): H2b-restricted cytotoxic T cell epitopes
specific lysis of target cells (51Cr release) (RMA cells): able to efficiently lyse
